Where “and” joins values, the source holds several entries; their conditions need not be identical. Equal entries are not always repeated.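 Step 1: Grow cells in 96-well plates. Step 2: Expose to compound for 48 hours at 5 concentrations. Step 3: Interpolate endpoints linearly; if unreached, use highest concentration. GI50 is the concentration that inhibits growth by half. TGI: concentration producing complete growth inhibition.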
How the values were obtained:
Test in all cases: NCI tumour cell line growth inhibition, 48 h
HOP-62 NSCLC = test system: HOP-62 NSCLC
COLO 205 colon = test system: COLO 205 colon
RPMI-8226 leukemia = test system: RPMI-8226 leukemia
786-0 renal = test system: 786-0 renal
MOLT-4 leukemia = test system: MOLT-4 leukemia
CCRF-CEM leukemia = test system: CCRF-CEM leukemia
A498 renal = test system: A498 renal
SF-295 CNS = test system: SF-295 CNS
PC-3 prostate = test system: PC-3 prostate
BT-549 breast = test system: BT-549 breast

Structure (SMILES) | TGI (HOP-62 NSCLC) | TGI (COLO 205 colon) | TGI (RPMI-8226 leukemia) | TGI (786-0 renal) | TGI (MOLT-4 leukemia) | TGI (CCRF-CEM leukemia) | TGI (A498 renal) | TGI (SF-295 CNS) | GI50 (HOP-62 NSCLC) | GI50 (COLO 205 colon) | GI50 (RPMI-8226 leukemia) | GI50 (PC-3 prostate) | TGI (PC-3 prostate) | GI50 (786-0 renal) | GI50 (BT-549 breast) | TGI (BT-549 breast) | GI50 (MOLT-4 leukemia) | GI50 (CCRF-CEM leukemia) | GI50 (SF-295 CNS) | GI50 (A498 renal)
CCOC(=O)C1(C(=O)OCC)CC=C(C)CC12C(=O)Nc1ccccc12 (centres undefined) | > 100 µM | > 100 µM | > 100 µM | > 100 µM | > 100 µM | > 100 µM | > 100 µM | > 100 µM |  |  |  |  |  |  |  |  |  |  |  | 
CC(C)(C)n1cc(-c2ccnc(NCCNS(=O)(=O)c3cccc4ccccc34)c2)c(-c2cccc(F)c2)n1 | 46.3 µM | 43.3 µM | 44.9 µM | 6.75 µM | > 100 µM | > 100 µM |  | 57.3 µM | 17.2 µM | 8.98 µM | 6.2 µM | 4.71 µM | 54.4 µM | 2.44 µM | 10.6 µM | 26.7 µM | 10 µM | 8.38 µM | 22.3 µM | 
Cn1cnc([N+](=O)[O-])c1Sc1nnc(C(F)(F)F)n1C | > 100 µM | 28.8 µM | 49.9 µM | > 100 µM | 38.2 µM | 48.4 µM | > 100 µM | > 100 µM |  |  |  |  |  |  |  |  |  |  |  | 
COP1(=S)OCC2CCC[C@@H]2O1 (some centres undefined) |  | > 100 µM | > 100 µM | > 100 µM | > 100 µM | > 100 µM | > 100 µM | > 100 µM |  |  |  |  | > 100 µM |  |  | > 100 µM |  |  |  | 
CC(C)(C)c1nnc2n(c1=O)N=CC(c1ccc(Br)cc1)S2 (centres undefined) | > 100 µM | > 100 µM | > 100 µM | > 100 µM | > 100 µM | > 100 µM |  | 58.9 µM | 37.5 µM | 39.2 µM | 25.6 µM | 42.1 µM | > 100 µM | 32.3 µM | 24.3 µM | 74.7 µM | 31.5 µM | 31.3 µM | 12.1 µM | 
COC(=O)C(=O)C(C#N)c1ccc(Cl)c(Cl)c1 (centres undefined) |  |  | > 100 µM | > 100 µM | > 100 µM | > 100 µM |  | > 100 µM |  |  |  |  |  |  |  |  |  |  |  | 
O=C1CCC2CCOc3ccc(O)c1c32 (centres undefined) | > 100 µM | > 100 µM | > 100 µM | > 100 µM | > 100 µM | > 100 µM | > 100 µM | > 100 µM |  |  |  |  |  |  |  |  |  |  |  | 
CC(C)(C)C(=O)OCC(COC(=O)C(C)(C)C)[N+](=O)[O-] |  | > 100 µM | > 100 µM | > 100 µM | > 100 µM | > 100 µM |  | > 100 µM |  |  |  |  |  |  |  |  |  |  |  | 
Oc1ccc(SCc2ccc(NCc3ccccc3)cc2)cc1 | > 100 µM | > 100 µM |  | 26.8 µM | 39.7 µM | 64.8 µM | 88 µM | > 100 µM |  |  |  |  | 71.9 µM |  |  | > 100 µM |  |  |  | 
O=C1c2ccccc2C2(O)Oc3cccc(O)c3C12O (centres undefined) | > 100 µM | > 100 µM | > 100 µM | > 100 µM | > 100 µM | > 100 µM | > 100 µM | > 100 µM |  |  |  |  |  |  |  |  |  |  |  | 
CCCCCCCCCC(=O)N[C@H]1CCc2cc(OC)c(OC)c(OC)c2-c2ccc(SC)c(=O)cc21 |  | 0.0123 µM |  | 10.4 µM | > 100 µM | > 100 µM | 0.0596 µM |  |  |  |  |  |  |  |  |  |  |  |  | 
COc1ccc(-c2c(C#N)c(N)nc3c2CCCc2ccc(F)cc2-3)cc1OC | 29.7 µM | > 38.1 µM | 1.61 µM | 30.3 µM | > 100 µM | > 92.8 µM |  |  | 0.131 µM | 4.89 µM | < 0.01 µM | < 0.0185 µM |  | 0.0964 µM | 0.556 µM | 26.2 µM | < 0.01 µM | < 0.0105 µM | < 0.01 µM | 
COc1ccc(Cn2cc(Cn3c(=O)c(-c4nc5ccccc5[nH]4)cc4ccccc43)nn2)c(OC)c1OC | 0.938 µM and 3.87 µM |  | 1.15 µM | 2.86 µM | > 100 µM |  | 0.607 µM | 1.19 µM and 1.94 µM | 0.179 µM and 0.525 µM |  | 0.129 µM | 0.313 µM | > 100 µM | 0.457 µM | 0.502 µM | 1.52 µM | 0.468 µM | 0.174 µM and 0.443 µM | 0.239 µM and 0.324 µM | 0.118 µM
O=C1CC(c2c[nH]c3ccccc23)C(=O)N1c1ccccc1 (centres undefined) | > 100 µM |  | > 100 µM | > 100 µM | > 100 µM | > 100 µM | > 100 µM | > 100 µM |  |  |  |  |  |  |  |  |  |  |  | 
CS(=O)(=O)CS(=O)CS(=O)CS(=O)CC(NC(=O)CCC(N)C(=O)O)C(=O)O (centres undefined) | > 100 µM | > 100 µM | > 100 µM | > 100 µM | > 100 µM | > 100 µM |  | > 100 µM |  |  |  |  | > 100 µM |  |  | > 100 µM |  |  |  | 
COc1ccc(CCC2NCCc3cc(OC)c(OC)cc32)cc1 (centres undefined) | > 100 µM |  | > 100 µM | > 100 µM | > 100 µM | > 100 µM | > 100 µM | > 100 µM |  |  |  |  |  |  |  |  |  |  |  | 
COc1ccc(Nc2c[nH]c(=O)[nH]c2=O)cc1 | > 100 µM | > 100 µM | > 100 µM | > 100 µM | > 100 µM | > 100 µM | > 100 µM | > 100 µM |  |  |  |  | > 100 µM |  |  |  |  |  |  | 
CCc1cccc(C(C)CC)c1NC(=O)CC1C(=O)Nc2ccccc2S1=O (centres undefined) |  |  | > 100 µM | > 100 µM | 69 µM | 90.3 µM | > 100 µM | > 100 µM |  |  |  |  |  |  |  |  |  |  |  | 
CC(C)c1ccc(O)c(=O)cc1 | > 100 µM | 30.1 µM | > 80.5 µM | > 100 µM | > 44.8 µM and 6.22 µM | > 41 µM and 4.89 µM | > 100 µM | > 100 µM | 3.75 µM | 3.83 µM | 6.35 µM |  |  | 14.7 µM |  |  | 2.16 µM | 1.67 µM | 7.57 µM | 
Cc1ccc(N(C(=O)CC(=O)N2N=C(c3ccccc3)C(N=Nc3ccc([N+](=O)[O-])cc3)C2=O)C(=O)c2ccc(Cl)cc2)cc1 (centres undefined) | 29.8 µM | 10.4 µM | > 59.1 µM | 30.5 µM | > 100 µM | > 30.9 µM | 36.9 µM | 25.6 µM |  |  |  |  |  |  |  |  |  |  |  | 
CC12CCC(O)CC1CCC1C2CCC2(C)C(C3=CC(=O)OC3)CCC12 (centres undefined) | 44.9 µM | > 100 µM | > 100 µM | 65.2 µM | > 100 µM |  | 10.4 µM | 27.4 µM | 9.53 µM | > 100 µM | 1.27 µM | > 67.4 µM | > 100 µM | 22 µM | 11.2 µM | > 95.3 µM | > 100 µM |  | 10.7 µM | 1.5 µM
